Laboratory results reported in the kinase profiling compilation of Christmann-Franck et al. (2016).

Assays:
Assay in all cases: KINOMEscan competition binding
Settings in all cases: compound 1.0 µM
ACVR1B (human) = ACVR1B (human) (UniProt P36896)
AKT2 (human) = AKT2 (human) (UniProt P31751)
AURKC (human) = AURKC (human) (UniProt Q9UQB9)
CDC42BPA (human) = CDC42BPA (human) (UniProt Q5VT25)
CDK18 (human) = CDK18 (human) (UniProt Q07002)
CDKL2 (human) = CDKL2 (human) (UniProt Q92772)
CHEK1 (human) = CHEK1 (human) (UniProt O14757)
CSNK1G1 (human) = CSNK1G1 (human) (UniProt Q9HCP0)
CSNK2A2 (human) = CSNK2A2 (human) (UniProt P19784)
DCLK1 (human) = DCLK1 (human) (UniProt O15075)
EPHA2 (human) = EPHA2 (human) (UniProt P29317)
ERBB2 (human) = ERBB2 (human) (UniProt P04626)
ERBB4 (human) = ERBB4 (human) (UniProt Q15303)
[1] = tested on: FGFR3 (human), P22607 [G697C]
Chain of FGFR3 (human), P22607 [G697C] (P22607 whole entry G697C, looked up): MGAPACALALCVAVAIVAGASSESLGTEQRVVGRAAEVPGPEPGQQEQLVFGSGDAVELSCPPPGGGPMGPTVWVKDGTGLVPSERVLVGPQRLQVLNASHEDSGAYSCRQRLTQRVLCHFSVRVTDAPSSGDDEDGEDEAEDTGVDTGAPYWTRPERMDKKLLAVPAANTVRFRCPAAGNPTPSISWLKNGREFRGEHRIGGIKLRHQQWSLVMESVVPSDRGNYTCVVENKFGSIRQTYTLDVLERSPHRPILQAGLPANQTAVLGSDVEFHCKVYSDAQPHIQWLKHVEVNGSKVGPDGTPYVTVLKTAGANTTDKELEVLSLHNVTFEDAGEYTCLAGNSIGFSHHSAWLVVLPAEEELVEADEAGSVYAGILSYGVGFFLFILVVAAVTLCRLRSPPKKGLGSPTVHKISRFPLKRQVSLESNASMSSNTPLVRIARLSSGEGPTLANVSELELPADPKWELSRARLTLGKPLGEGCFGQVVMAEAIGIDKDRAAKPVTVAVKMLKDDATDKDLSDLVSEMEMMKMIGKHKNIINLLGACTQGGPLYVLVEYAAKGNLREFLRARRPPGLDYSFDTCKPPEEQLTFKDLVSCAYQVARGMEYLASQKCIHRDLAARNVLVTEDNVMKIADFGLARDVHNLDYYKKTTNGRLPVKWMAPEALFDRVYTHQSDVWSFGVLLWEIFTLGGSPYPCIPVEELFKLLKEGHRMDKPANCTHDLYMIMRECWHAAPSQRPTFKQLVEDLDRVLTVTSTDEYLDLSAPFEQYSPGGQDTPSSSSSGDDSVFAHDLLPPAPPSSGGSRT

[2] = tested on: FLT3 (human), P36888 [N841I]
GSK3B (human) = GSK3B (human) (UniProt P49841)
Chain of GSK3B (human) (P49841 whole entry, looked up): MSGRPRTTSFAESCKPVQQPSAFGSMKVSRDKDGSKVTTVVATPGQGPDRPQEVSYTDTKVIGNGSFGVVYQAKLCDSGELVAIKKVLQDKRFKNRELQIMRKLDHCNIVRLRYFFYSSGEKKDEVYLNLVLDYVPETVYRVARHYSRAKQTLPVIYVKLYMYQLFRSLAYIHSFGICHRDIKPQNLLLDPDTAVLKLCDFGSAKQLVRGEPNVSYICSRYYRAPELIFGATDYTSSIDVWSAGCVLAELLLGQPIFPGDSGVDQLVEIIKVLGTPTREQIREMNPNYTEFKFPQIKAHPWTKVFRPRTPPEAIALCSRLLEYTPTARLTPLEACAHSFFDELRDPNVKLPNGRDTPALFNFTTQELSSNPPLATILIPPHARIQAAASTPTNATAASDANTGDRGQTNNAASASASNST

INSR (human) = INSR (human) (UniProt P06213)
IRAK3 (human) = IRAK3 (human) (UniProt Q9Y616)
Chain of IRAK3 (human) (Q9Y616 whole entry, looked up): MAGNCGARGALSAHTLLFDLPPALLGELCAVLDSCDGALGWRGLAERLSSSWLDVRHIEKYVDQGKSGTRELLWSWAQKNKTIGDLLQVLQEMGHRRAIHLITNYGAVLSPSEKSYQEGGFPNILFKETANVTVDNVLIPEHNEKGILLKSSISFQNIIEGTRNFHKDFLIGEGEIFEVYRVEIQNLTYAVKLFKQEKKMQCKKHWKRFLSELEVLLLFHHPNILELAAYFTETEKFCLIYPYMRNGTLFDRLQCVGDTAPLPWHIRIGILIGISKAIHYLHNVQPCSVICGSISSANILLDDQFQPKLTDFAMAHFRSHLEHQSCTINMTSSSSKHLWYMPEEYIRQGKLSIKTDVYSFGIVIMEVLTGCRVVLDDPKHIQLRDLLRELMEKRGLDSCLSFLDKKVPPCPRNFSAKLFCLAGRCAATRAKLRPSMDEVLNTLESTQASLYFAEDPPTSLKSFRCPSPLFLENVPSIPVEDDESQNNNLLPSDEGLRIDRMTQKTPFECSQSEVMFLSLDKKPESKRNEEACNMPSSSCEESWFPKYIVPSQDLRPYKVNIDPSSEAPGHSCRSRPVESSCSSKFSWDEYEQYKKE

IRAK4 (human) = IRAK4 (human) (UniProt Q9NWZ3)
[3] = target: JAK1 JH2 pseudokinase (human) (UniProt P23458)
[4] = target: JAK3 JH1 catalytic (human) (UniProt P52333)
[5] = tested on: KIT (human), P10721 [D816H]
MAPK13 (human) = MAPK13 (human) (UniProt O15264)
MAPK7 (human) = MAPK7 (human) (UniProt Q13164)
Chain of MAPK7 (human) (Q13164 whole entry, looked up): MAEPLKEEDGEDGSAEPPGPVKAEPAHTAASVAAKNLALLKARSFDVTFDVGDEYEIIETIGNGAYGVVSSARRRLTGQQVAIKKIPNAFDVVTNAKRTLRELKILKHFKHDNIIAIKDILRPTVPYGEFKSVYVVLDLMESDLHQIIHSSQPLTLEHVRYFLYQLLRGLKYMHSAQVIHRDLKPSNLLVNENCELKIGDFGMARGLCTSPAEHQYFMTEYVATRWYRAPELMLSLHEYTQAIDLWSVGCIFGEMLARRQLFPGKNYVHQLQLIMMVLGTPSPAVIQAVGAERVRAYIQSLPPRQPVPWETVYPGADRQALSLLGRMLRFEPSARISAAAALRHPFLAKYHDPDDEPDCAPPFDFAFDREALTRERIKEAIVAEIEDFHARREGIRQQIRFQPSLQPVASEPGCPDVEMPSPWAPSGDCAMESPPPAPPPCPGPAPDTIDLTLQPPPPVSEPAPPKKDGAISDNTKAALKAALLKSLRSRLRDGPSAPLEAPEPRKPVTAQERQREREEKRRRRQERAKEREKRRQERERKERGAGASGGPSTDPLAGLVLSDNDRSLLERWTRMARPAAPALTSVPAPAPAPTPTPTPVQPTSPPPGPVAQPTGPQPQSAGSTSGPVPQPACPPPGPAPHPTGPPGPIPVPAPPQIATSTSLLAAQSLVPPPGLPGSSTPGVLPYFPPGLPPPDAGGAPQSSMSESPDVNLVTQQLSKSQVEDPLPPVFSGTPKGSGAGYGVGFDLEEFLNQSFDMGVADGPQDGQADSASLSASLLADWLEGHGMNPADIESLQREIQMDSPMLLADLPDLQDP

MAPKAPK5 (human) = MAPKAPK5 (human) (UniProt Q8IW41)
NEK5 (human) = NEK5 (human) (UniProt Q6P3R8)
NTRK3 (human) = NTRK3 (human) (UniProt Q16288)
[6] = tested on: PIK3CA (human), P42336 [H1047Y]
PRKD3 (human) = PRKD3 (human) (UniProt O94806)
RIOK1 (human) = RIOK1 (human) (UniProt Q9BRS2)
RPS6KA2 KD1 (human) = RPS6KA2 KD1 (human) (UniProt Q15349)
RPS6KA3 KD1 (human) = RPS6KA3 KD1 (human) (UniProt P51812)
RPS6KA5 KD1 (human) = RPS6KA5 KD1 (human) (UniProt O75582)
STK3 (human) = STK3 (human) (UniProt Q13188)
STK4 (human) = STK4 (human) (UniProt Q13043)
TXK (human) = TXK (human) (UniProt P42681)
Chain of TXK (human) (P42681 whole entry, looked up): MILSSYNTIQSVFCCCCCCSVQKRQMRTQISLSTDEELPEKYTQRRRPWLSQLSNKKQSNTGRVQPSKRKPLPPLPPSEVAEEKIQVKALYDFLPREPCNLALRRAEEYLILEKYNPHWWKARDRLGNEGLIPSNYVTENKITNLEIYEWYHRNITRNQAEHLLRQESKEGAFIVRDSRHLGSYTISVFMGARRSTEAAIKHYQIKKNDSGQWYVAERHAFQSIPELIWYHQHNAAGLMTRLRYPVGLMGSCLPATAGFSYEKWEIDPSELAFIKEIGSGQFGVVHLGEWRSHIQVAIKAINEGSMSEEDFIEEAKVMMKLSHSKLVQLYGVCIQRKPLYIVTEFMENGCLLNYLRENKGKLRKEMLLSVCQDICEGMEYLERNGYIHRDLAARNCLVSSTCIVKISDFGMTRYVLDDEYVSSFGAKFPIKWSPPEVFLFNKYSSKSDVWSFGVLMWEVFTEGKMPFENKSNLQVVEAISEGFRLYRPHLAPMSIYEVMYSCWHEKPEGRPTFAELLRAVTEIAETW

WEE1 (human) = WEE1 (human) (UniProt P30291)
WNK3 (human) = WNK3 (human) (UniProt Q9BYP7)
Chain of WNK3 (human) (Q9BYP7 whole entry, looked up): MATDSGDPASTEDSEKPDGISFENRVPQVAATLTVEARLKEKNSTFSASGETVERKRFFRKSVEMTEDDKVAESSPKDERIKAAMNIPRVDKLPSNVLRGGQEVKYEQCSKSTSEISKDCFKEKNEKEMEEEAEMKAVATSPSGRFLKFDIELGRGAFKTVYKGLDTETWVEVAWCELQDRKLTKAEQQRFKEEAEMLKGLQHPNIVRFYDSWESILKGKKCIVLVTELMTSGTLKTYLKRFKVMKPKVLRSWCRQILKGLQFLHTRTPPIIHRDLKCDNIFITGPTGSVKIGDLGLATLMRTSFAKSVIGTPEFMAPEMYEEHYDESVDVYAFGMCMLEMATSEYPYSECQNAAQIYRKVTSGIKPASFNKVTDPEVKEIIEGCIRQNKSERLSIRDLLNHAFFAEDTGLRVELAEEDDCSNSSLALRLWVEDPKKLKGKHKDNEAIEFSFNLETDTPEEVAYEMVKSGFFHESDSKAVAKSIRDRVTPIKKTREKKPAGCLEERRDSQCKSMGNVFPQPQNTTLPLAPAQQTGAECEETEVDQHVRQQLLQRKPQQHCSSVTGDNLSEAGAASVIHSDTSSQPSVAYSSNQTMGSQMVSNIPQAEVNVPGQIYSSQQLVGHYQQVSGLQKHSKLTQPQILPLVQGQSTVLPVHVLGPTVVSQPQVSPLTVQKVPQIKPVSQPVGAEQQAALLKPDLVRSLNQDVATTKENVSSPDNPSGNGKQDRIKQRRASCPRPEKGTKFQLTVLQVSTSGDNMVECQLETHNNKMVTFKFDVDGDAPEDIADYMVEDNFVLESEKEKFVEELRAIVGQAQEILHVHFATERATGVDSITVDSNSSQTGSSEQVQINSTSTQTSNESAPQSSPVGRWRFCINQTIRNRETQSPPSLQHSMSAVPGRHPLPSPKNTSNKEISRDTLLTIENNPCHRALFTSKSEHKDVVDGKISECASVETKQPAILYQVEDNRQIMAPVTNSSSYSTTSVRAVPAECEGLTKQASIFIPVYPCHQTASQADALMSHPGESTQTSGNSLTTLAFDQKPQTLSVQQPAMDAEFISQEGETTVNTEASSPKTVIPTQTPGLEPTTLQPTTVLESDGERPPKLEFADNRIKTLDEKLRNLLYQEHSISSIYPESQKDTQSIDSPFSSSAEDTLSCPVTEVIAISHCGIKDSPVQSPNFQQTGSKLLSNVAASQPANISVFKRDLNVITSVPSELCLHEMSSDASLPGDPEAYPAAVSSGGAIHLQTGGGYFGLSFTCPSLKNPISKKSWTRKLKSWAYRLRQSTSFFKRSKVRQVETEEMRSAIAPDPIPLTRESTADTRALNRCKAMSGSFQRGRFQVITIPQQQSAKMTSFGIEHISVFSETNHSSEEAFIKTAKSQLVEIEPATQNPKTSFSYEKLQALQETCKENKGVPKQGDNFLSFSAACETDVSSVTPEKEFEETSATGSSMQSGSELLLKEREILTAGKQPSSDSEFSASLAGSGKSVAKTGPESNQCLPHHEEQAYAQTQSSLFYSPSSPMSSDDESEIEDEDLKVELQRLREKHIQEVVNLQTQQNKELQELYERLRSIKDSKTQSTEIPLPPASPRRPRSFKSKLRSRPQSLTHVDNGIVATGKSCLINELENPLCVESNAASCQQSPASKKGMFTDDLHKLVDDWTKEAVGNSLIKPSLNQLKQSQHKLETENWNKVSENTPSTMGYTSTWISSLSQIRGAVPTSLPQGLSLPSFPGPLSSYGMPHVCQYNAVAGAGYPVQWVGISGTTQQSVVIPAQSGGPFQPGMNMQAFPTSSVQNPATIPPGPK

`CNc1nc(Nc2ccc(C(=O)N3CCOCC3)cc2OC)ncc1Cl` was tested, and the kinase still bound, per cent of control (ACVR1B (human)) was 100%, the kinase still bound, per cent of control (AKT2 (human)) was 100% and the kinase still bound, per cent of control (AURKC (human)) was 88%. For the same compound, the kinase still bound, per cent of control (CDC42BPA (human)) was 97%, the residual activity (CDK18 (human)) was 98% and the residual activity (CDKL2 (human)) was 100%. The kinase still bound, per cent of control (CHEK1 (human)) was 100%, the kinase still bound, per cent of control (CSNK1G1 (human)) was 55% and the kinase still bound, per cent of control (CSNK2A2 (human)) was 74%. It also gave a kinase still bound, per cent of control (DCLK1 (human)) of 100%, a kinase still bound, per cent of control (EPHA2 (human)) of 100% and a kinase still bound, per cent of control (ERBB2 (human)) of 100%. The kinase still bound, per cent of control (ERBB4 (human)) was 100%, the kinase still bound, per cent of control [1] was 100% and the kinase still bound, per cent of control [2] was 73%. The kinase still bound, per cent of control (GSK3B (human)) was 97%, the kinase still bound, per cent of control (INSR (human)) was 82% and the kinase still bound, per cent of control (IRAK3 (human)) was 88%. The kinase still bound, per cent of control (IRAK4 (human)) was 100%, the kinase still bound, per cent of control [3] was 90% and the kinase still bound, per cent of control [4] was 90%. For the same compound, the kinase still bound, per cent of control [5] was 100%, the kinase still bound, per cent of control (MAPK13 (human)) was 94% and the kinase still bound, per cent of control (MAPK7 (human)) was 98%. For the same compound, the kinase still bound, per cent of control (MAPKAPK5 (human)) was 100%, the kinase still bound, per cent of control (NEK5 (human)) was 100% and the kinase still bound, per cent of control (NTRK3 (human)) was 100%. For the same compound, the kinase still bound, per cent of control [6] was 85%, the kinase still bound, per cent of control (PRKD3 (human)) was 98% and the kinase still bound, per cent of control (RIOK1 (human)) was 95%. It also gave a kinase still bound, per cent of control (RPS6KA2 KD1 (human)) of 100%, a kinase still bound, per cent of control (RPS6KA3 KD1 (human)) of 100% and a kinase still bound, per cent of control (RPS6KA5 KD1 (human)) of 100%. It also gave a kinase still bound, per cent of control (STK3 (human)) of 76%, a kinase still bound, per cent of control (STK4 (human)) of 100% and a kinase still bound, per cent of control (TXK (human)) of 100%. For the same compound, the kinase still bound, per cent of control (WEE1 (human)) was 78% and the kinase still bound, per cent of control (WNK3 (human)) was 93%.
